Measurements: patent publication US8232270B2, “Bivalent (−)-meptazinol compounds and/or their salts, and their preparation and futilization” (priority 2006, dated 2012)
Several values for one entry are separate records, joined by “and”; a condition that tells them apart may be missing. Equal entries are not always repeated. Structures can show the parent of a compound that is named as a salt.

Tests used:
[1] = target: T1, mice brain AChE (Mus musculus, UniProt P21836); assay: AChE inhibition, Ellman spectrophotometric assay, mice brain homogenate; type: biochemical; conditions: for IC50: mean ± SEM, at least three measures, hydrochlorides, 20 min preincubation at 37° C.; for AChE selectivity: mice serum BChE versus mice brain AChE IC50
T1 construct: Mice brain homogenate prepared in saline was used as a source of AChE; from tissue; host or cells: mouse brain homogenate
T1 sequence (P21836 32-614): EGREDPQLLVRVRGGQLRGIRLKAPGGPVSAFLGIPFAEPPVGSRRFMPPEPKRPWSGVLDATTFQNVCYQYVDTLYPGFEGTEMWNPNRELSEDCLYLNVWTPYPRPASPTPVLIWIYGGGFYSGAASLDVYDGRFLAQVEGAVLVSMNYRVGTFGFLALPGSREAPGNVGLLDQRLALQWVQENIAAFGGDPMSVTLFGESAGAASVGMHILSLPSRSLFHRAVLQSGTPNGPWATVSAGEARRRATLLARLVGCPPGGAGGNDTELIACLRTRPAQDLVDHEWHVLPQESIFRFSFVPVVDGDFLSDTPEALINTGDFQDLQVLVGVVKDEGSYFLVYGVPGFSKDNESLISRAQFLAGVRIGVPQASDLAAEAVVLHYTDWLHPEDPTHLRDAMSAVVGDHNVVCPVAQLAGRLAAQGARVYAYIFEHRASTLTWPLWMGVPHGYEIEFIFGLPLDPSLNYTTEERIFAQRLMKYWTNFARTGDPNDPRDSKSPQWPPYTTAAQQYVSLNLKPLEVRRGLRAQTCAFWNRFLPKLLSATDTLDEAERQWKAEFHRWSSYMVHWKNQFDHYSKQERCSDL
Description: (§1) AChE inhibiting activities were measured by a spectrophotometric assay developed by Ellman et al. It was based on the fact that AChE catalyzes the hydrolysis of acetylcholine, releasing choline and acetic acid. In this assay, acetylthiocholine (AChSC) is hydrolyzed by the enzyme, releasing thiocholine containing a sulfhydrylic group able to react with color indicating reagent. Yellowish products were measured spectrophotometrically, the amount of which reflects the activity of AChE. All the procedures were operated according to the instruction of the AChE reagent kit produced by Nanjing Jiancheng Bio-engineering Institute. Mice brain homogenate prepared in saline was used as a source of AChE; mice serum was the source of BChE.
(§2) After incubation for 20 min at 37° C., acetylthiocholine iodide (300 μL of 0.05 mM water solution) was added as the substrate, and AChE activity was determined by UV spectrophotometry from the absorbance changes at […] for 3 min at 25° C. […] BChE inhibitory activity determinations were similarly carried out using butyrylthiocholine iodide (0.05 mM) as the substrate. Results are reported as the means ±SEM of IC50 obtained from at least three independent measures.

[2] = target: T2, mice serum BChE (Mus musculus, UniProt Q03311); assay: BChE inhibition, Ellman spectrophotometric assay, mice serum; type: biochemical; conditions: for IC50: mean ± SEM, at least three measures, butyrylthiocholine iodide substrate
T2 construct: mice serum was the source of BChE; from tissue; host or cells: mouse serum
T2 sequence (Q03311 30-603): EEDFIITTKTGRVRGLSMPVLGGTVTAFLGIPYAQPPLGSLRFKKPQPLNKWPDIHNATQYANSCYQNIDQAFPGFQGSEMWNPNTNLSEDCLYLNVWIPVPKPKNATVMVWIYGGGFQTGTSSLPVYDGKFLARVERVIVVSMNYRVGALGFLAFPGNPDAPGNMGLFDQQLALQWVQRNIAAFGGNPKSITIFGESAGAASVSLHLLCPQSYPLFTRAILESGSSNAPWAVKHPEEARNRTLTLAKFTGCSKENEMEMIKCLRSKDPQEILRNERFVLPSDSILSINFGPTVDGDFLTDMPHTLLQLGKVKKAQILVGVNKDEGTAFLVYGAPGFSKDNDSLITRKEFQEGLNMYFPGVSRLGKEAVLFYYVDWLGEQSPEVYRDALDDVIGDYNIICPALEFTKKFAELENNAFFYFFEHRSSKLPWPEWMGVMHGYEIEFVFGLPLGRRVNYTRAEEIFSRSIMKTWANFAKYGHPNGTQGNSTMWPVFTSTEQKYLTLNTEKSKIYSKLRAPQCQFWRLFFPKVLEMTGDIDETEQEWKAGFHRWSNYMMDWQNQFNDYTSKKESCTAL
Description: as §1
as §2, with “The AChE activity was determined in a reaction mixture containing 200 μL of a solution of AChE (0.415 U/mL in 0.1 M phosphate buffer, pH 8.0), 300 μL of a solution of 5,5′-dithio-bis(2-nitrobenzoic) acid (3.3 mM DTNB in 0.1 M phosphate buffered solution, pH 7.0, containing NaHCO3 6 mM), and 30 μL of a solution of the inhibitor (six to seven concentrations). After” for “After”

[3] = target: T3, AChE-induced Aβ (1-40) aggregation (human recombinant AChE) (Homo sapiens, UniProt P22303); assay: Inhibition of AChE-induced Aβ aggregation, thioflavin T fluorescence; type: biochemical; conditions: for inhibition at 100 µM: inhibitor 100 μM, read-out: Inhibition (%) 100 μM ± SEM; for inhibition at 400 µM: read-out: Inhibition (%) 400 μM ± SEM; for IC50: extrapolated from inhibition curves, read-out: IC50 ± SEM, AChE-induced Aβ aggregation; for inhibition of AChE-induced Aβ aggregation, factor compared with propidium: relative to propidium
T3 construct: purchased Sigma-Aldrich
T3 sequence (P22303 32-614): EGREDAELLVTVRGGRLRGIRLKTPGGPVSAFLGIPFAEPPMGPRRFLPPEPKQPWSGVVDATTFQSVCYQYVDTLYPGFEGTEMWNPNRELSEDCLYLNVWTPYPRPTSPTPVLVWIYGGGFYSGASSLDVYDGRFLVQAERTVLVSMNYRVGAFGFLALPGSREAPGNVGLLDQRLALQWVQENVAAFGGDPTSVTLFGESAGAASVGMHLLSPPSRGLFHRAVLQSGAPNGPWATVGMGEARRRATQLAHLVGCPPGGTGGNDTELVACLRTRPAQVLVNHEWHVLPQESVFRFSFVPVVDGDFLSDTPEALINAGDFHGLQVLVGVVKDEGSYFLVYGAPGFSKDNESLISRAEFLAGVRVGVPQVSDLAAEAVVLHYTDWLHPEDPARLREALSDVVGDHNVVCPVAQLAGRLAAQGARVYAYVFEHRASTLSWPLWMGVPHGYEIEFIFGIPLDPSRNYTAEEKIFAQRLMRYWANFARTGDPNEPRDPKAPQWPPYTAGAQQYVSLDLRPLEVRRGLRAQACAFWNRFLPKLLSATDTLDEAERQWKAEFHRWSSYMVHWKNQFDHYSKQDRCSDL
Description: Aliquots of 2 μL Aβ (1-40) peptide (Biosource), lyophilized from 2 mg/mL HFIP solution and dissolved in DMSO, were incubated for 48 h at room temperature in 0.215 M sodium phosphate buffer (pH 8.0) at a concentration of 230 μM. For coincubation experiments, aliquots (16 μL) of human recombinant AChE (Sigma-Aldrich) (final concentration of 2.3 μM) and AChE in the presence of 2 μL of the tested inhibitors were added. Each assay was run in duplicate. To quantify amyloid fibril formation, the thioflavin T fluorescence method was then applied.
Fluorescence was monitored with excitation at 446 nm and emission at 490 nm. The percent inhibition of the AChE-induced aggregation due to the presence of increasing concentrations of the inhibitor was calculated by the following expression: 100−(IFi/IFo×100), where IFi and IFo were the fluorescence intensities obtained for Aβ plus AChE in the presence and in the absence of inhibitor, respectively, after subtracting the fluorescence of respective blanks. Inhibition curves and linear regression parameters were obtained for each compound, and the IC50 was extrapolated.

[4] = target: T1, mice brain AChE; conditions: background statement; cited from earlier work
[5] = inhibitor 400 μM, Aβ 230 μM, AChE 2.3 μM, 48 h
[6] = relative to (−)-MEP (hydrochloride)

SMILES	IC50 [1]	AChE selectivity [1]	IC50 [2]	inhibition at 100 µM ([3]; Aβ 230 μM, AChE 2.3 μM, 48 h)	inhibition at 400 µM [3, 5]	also measured
CC[C@@]1(c2cccc(O)c2)CCCCN(CCCCN2CCCC[C@@](CC)(c3cccc(O)c3)C2)C1 [(A = CH2, n = 4), N,N′-(1′,4′-Butylene)-bis-(−)-nor-MEP Hydrochloride]	21400 ± 7600 nM	0.0049	104 ± 29 nM			
CC[C@@]1(c2cccc(O)c2)CCCCN(CCCCCCCCN2CCCC[C@@](CC)(c3cccc(O)c3)C2)C1 [(A = CH2, n = 8)]	79 ± 19 nM	0.80	63 ± 8 nM	0%	0.15 ± 0.2%	
CC[C@@]1(c2cccc(O)c2)CCCCN(CCN2CCCC[C@@](CC)(c3cccc(O)c3)C2)C1 [(A = CH2, n = 2)]	43000 ± 20000 nM	0.0029	125 ± 9 nM			
CC[C@@]1(c2cccc(O)c2)CCCCN(CCCCCCN2CCCC[C@@](CC)(c3cccc(O)c3)C2)C1 [(A = CH2, n = 6)]	1220 ± 20 nM	0.098	119 ± 20 nM			
CC[C@@]1(c2cccc(O)c2)CCCCN(CCCCCCCCCN2CCCC[C@@](CC)(c3cccc(O)c3)C2)C1 [(A = CH2, n = 9), N,N′-(1′,9′-Nonylene)-bis-(−)-nor-MEP Hydrochloride]	3.9 nM	2.6	10 nM	74.4 ± 4.3%	91.7 ± 3.6%	selectivity for AChE, times that of (−)-MEP ([1]; relative to (−)-MEP): 7 times; fold increase in inhibiting mice brain AChE compared with (−)-MEP [1, 6]: 10000 fold; fold increase in inhibiting mice brain AChE compared with rivastigmine ([1]; relative to rivastigmine): 1400 fold; selectivity for AChE, times that of rivastigmine ([1]; relative to rivastigmine): 9 times; IC50 [3]: 79000 nM and 79400 nM; inhibition of AChE-induced Aβ aggregation, factor compared with propidium [3]: ~2 times; BChE inhibition, times more potent than (−)-MEP [2, 6]: 1500 times; BChE inhibition, times more potent than rivastigmine ([2]; relative to rivastigmine): 150 times
CC[C@@]1(c2cccc(O)c2)CCCCN(CCCN2CCCC[C@@](CC)(c3cccc(O)c3)C2)C1 [(A = CH2, n = 3)]	42000 ± 14000 nM	0.0031	132 ± 51 nM			
CC[C@@]1(c2cccc(O)c2)CCCCN(CCCCCCCN2CCCC[C@@](CC)(c3cccc(O)c3)C2)C1 [(A = CH2, n = 7)]	270 ± 70 nM	0.38	102 ± 19 nM			
CCC1(c2cccc(O)c2)CCCCN(C)C1 (single isomer, unassigned; (-)) [(−)-meptazinol]	41000 ± 14000 nM	0.37	15000 ± 4000 nM			Inhibition (%) 400 μM ± SEM [3, 5]: 0%; mice brain AChE inhibition test, result in words [4]: potent AChE inhibitor
CC[C@@]1(c2cccc(O)c2)CCCCN(CCCCCCCCCCCN2CCCC[C@@](CC)(c3cccc(O)c3)C2)C1 [(A = CH2, n = 11)]	24 ± 8 nM	3.1	74 ± 11 nM			
CC[C@@]1(c2cccc(O)c2)CCCCN(CCCCCCCCCCCCN2CCCC[C@@](CC)(c3cccc(O)c3)C2)C1 [(A = CH2, n = 12)]	42 ± 20 nM	2.4	100 ± 55 nM			
CC[N+](C)(CC)CCC[n+]1c(-c2ccccc2)c2cc(N)ccc2c2ccc(N)cc21 [Propidium iodine, reference compound]				16.7 ± 4.4%	79.2 ± 5.9%	
CC[C@@]1(c2cccc(O)c2)CCCCN(CCCCCN2CCCC[C@@](CC)(c3cccc(O)c3)C2)C1 [(A = CH2, n = 5)]	4000 ± 1000 nM	0.048	192 ± 41 nM			
CC[C@@]1(c2cccc(O)c2)CCCCN(CCCCCCCCCCN2CCCC[C@@](CC)(c3cccc(O)c3)C2)C1 [(A = CH2, n = 10)]	9.5 ± 4.5 nM	1.8	17 ± 6 nM	66.6 ± 1.7%	81.8 ± 1.2%	IC50 [3]: 83000 nM and 83400 nM; inhibition of AChE-induced Aβ aggregation, factor compared with propidium [3]: ~2 times
